Peptide text beside a SMILES is read from it.
Tests used:
intact NDSK = biological target: T1, intact NDSK (Homo sapiens, UniProt P02671+P02675+P02679); test: Equilibrium binding of 125-I D1 Peptide, intact NDSK
T1 sequence (P02671 20-70 limits assumed): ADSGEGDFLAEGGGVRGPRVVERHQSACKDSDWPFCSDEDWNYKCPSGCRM
T1 sequence (P02675 31-148 limits assumed): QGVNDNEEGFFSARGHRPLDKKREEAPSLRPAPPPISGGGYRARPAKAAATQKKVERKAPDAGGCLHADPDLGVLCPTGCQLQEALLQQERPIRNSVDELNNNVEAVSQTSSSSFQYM
T1 sequence (P02679 27-104 limits assumed): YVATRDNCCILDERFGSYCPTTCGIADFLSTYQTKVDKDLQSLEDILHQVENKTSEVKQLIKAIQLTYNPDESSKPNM

[1] = biological target: T2, batroxobin fibrin monomer (Homo sapiens, UniProt P02671+P02675+P02679); test: Sephadex gel equilibrium binding, batroxobin fibrin monomer; details: 17 experiments, mean and standard deviation
T2 construct: fibrin monomer which was formed by batroxobin (lacking fibrinopeptide A); made in house; host or cells: not recombinant: made from fibrinogen by treatment with batroxobin (Bothrops atrox venom enzyme)
T2 sequence (P02671 36-629 isoform P02671-2): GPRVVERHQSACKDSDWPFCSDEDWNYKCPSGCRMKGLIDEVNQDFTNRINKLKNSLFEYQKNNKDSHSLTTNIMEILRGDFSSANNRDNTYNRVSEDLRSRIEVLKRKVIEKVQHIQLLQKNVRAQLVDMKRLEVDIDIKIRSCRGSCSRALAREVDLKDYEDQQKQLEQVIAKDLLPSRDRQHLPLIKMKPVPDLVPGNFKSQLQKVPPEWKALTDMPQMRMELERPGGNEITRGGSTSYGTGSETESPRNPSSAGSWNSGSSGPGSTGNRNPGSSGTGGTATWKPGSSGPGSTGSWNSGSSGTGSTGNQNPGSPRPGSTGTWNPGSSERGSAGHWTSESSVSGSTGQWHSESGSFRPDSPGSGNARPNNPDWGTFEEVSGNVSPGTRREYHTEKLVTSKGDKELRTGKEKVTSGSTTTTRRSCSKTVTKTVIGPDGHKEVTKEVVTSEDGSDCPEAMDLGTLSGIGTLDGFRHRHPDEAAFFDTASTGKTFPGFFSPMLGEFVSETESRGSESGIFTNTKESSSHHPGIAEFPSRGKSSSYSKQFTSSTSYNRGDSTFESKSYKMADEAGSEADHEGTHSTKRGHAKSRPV
T2 sequence (P02675 31-491): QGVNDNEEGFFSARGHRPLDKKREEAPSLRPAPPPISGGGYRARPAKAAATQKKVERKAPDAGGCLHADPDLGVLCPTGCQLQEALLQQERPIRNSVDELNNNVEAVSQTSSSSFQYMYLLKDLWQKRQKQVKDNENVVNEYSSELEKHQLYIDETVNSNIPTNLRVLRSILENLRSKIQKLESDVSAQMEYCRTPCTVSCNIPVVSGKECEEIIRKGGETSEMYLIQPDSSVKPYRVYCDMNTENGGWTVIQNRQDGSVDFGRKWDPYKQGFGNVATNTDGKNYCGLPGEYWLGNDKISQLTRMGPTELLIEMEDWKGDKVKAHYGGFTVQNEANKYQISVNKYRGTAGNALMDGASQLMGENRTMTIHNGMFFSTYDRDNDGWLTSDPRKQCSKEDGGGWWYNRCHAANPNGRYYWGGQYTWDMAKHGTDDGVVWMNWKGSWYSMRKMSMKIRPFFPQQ
T2 sequence (P02679 27-437 isoform P02679-2): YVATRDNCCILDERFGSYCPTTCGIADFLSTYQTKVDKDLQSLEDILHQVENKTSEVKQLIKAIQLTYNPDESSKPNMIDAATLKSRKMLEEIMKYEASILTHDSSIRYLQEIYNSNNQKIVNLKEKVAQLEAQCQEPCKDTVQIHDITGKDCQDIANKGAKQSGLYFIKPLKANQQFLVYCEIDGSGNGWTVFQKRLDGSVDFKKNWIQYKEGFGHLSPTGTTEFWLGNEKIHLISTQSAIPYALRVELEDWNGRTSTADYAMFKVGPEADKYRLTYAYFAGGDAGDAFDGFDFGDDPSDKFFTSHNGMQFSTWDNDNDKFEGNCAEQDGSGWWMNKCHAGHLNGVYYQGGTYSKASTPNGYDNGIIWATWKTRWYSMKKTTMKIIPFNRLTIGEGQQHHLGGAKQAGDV
Experimental: Acta 133, 376-379 (1979).
The purification of NDSK involves incubation of fibrinogen in cyanogen bromide in the presence of 70% formic acid. This treatment may alter the binding sites. Therefore, an attempt was made to reproduce the data using fibrin monomer instead of thrombin-treated NDSK. A major difficulty, the self-polymerization of fibrin monomer, was overcome by using high molar ratios of D1 Peptide to fibrin monomer. However, in this situation the concentration of D1 Peptide could be varied only over a small range of concentrations. D1 Peptide was added to the Sephadex gel equilibrium system and incubated for 10 min., then soluble fibrin monomer was added in a molar excess of D1 Peptide to fibrin monomer of 100-1000 fold. Under these conditions the lag time in the fibrin monomer polymerization was more than 30 min.
In experiments using thrombin fibrin monomer the number of binding sites for D1 Peptide was 1.82±0.26 (15 experiments, mean and standard deviation). For batroxobin fibrin monomer the number of binding sites was 1.91±0.24 (17 experiments, mean and standard deviation).

Compound: CC[C@H](C)[C@H](NC(=O)[C@H](CCCCN)NC(=O)[C@H](CCSC)NC(=O)[C@@H](NC(=O)[C@@H](NC(=O)[C@H](CCCCN)NC(=O)[C@H](CCCCN)NC(=O)[C@H](CCSC)NC(=O)[C@H](CO)NC(=O)[C@H](Cc1ccc(O)cc1)NC(=O)[C@H](Cc1c[nH]c2ccccc12)NC(=O)[C@H](CCCNC(=N)N)NC(=O)[C@@H](N)[C@@H](C)O)[C@@H](C)O)[C@@H](C)O)C(=O)N[C@H](C(=O)N1CCC[C@H]1C(=O)N[C@@H](Cc1ccccc1)C(=O)N[C@@H](CC(N)=O)C(=O)N[C@@H](CCCNC(=N)N)C(=O)N[C@@H](CC(C)C)C(=O)N[C@H](C(=O)N[C@H](C(=O)NCC(=O)N[C@@H](CCC(=O)O)C(=O)NCC(=O)N[C@@H](CCC(N)=O)C(=O)N[C@@H](CCC(N)=O)C(=O)N[C@@H](Cc1c[nH]cn1)C(=O)N[C@@H](Cc1c[nH]cn1)C(=O)N[C@@H](CC(C)C)C(=O)NCC(=O)NCC(=O)N[C@@H](C)C(=O)N[C@@H](CCCCN)C(=O)N[C@@H](CCC(N)=O)C(=O)N[C@@H](C)C(=O)NCC(=O)N[C@@H](CC(=O)O)C(=O)N[C@H](C(=O)O)C(C)C)[C@@H](C)CC)[C@@H](C)O)[C@@H](C)CC [D1 Peptide] (H-TRWYSMKKTTMKIIPFNRLTIGEGQQHHLGGAKQAGDV-OH)
- binding to intact NDSK (intact NDSK): no measurable binding
- number of binding sites for D1 Peptide [1]: 1.91±0.24

— patent US4455290A, “Inhibition of fibrin polymerization by a peptide isolated from fibrin Fragment D1” (Research Corporation, priority 1981, dated 1984)
